Laboratory results reported in US7122193B1 (priority 1994, dated 2006).

What was measured:
Type in all cases: cell-based, mouse
[1] = system: TCR of peptide-primed lymph node T-cells
[2] = system: peptide-primed T lymphocytes from BALB/c mice
[3] = system: peptide-primed T lymphocytes from BALB/c mice; remark: listed apart in the source

For “CH3CO-(D)Thr-(D)Asp-(D)Lys-(D)Tyr-(D)Thr-(D)Ile-(D)Lys-(D)Trp-(D)Val-(D)Ala-(D)Phe-(D)Leu-(D)Lys-NH2”, the “IL-2 secretion by T-cells from mice immunized against the L-peptide 103–115 in the presence of the peptide” value [1] was “remains unchanged”, the “proliferation of T-lymphocytes of mice immunized with retro-inverso analogue 103–115, in response to the peptide” value [2] was “proliferated in response to the homologous peptide” and the “proliferation of lymph node cells of mice immunized with parent peptide 103–115, stimulated in vitro by the peptide” value [2] was “did not proliferate in vitro”. The “IL-2 production of lymph node cells of mice immunized with parent peptide 103–115, stimulated in vitro by the peptide” value [3] was “No IL-2 production was observed” and the “maximal IL-2 secretion measured using CTL-L cells in the presence of Con A” value [3] was 5 570 cpm.
